Patent US20240358702A1, “CYCLIC UREA KRAS INHIBITORS” (INCYTE CORPORATION, priority 2023, published 2024)

Experiments:
KRAS G12D = KRAS G12D (Homo sapiens, UniProt P01116, G12D); test: GDP-GTP exchange assay (bodipy-GDP/GppNHp, SOS1), KRAS G12D; format: biochemical; settings: KRAS_G12D exchange assay IC50; 4 h pre-incubation; value for the most potent isomer quoted
Method: (§1) The inhibitor potency of the exemplified compounds was determined in a fluorescence based guanine nucleotide exchange assay, which measures the exchange of bodipy-GDP (fluorescently labeled GDP) for GppNHp (Non-hydrolyzable GTP analog) to generate the active state of KRAS in the presence of SOS1 (guanine nucleotide exchange factor). Inhibitors were serially diluted in DMSO and a volume of 0.1 μL was transferred to the wells of a black low volume 384-well plate. 5 μL/well volume of bodipy-loaded KRAS G12D diluted to […] in assay buffer (25 mM Hepes pH 7.5, 50 mM NaCl, 10 mM mgCl2 and 0.01% Brij-35) was added to the plate and pre-incubated with inhibitor for 4 h at ambient temperature. Appropriate controls (enzyme with no inhibitor or with a G12D inhibitor) were included on the plate. The exchange was initiated by the addition of a 5 μL/well volume containing 1 mM GppNHp and 300 nM SOS1 in assay buffer. The 10 μL/well reaction concentration of the bodipy-loaded KRAS G12D, GppNHp, and SOS1 were 2.5 nM, 500 uM, and 150 nM, respectively. The reaction plates were incubated at ambient temperature for 2 h, a time estimated for complete GDP-GTP exchange in the absence of inhibitor. For the KRAS G12V mutant, similar guanine nucleotide exchange assays were used with 2.5 nM as final concentration for the bodipy loaded KRAS proteins and 3 h incubation after adding GppNHp-SOS1 mixture. A cyclic peptide described to selectively bind G12D mutant (Sakamoto et al., BBRC 484.3 (2017), 605-611) or internal compounds with confirmed binding were used as positive controls in the assay plates. Fluorescence intensities were measured on a PheraStar plate reader instrument (BMG Labtech) with excitation at 485 nm and emission at 520 nm.
(§2) Either GraphPad prism or Genedata Screener SmartFit was used to analyze the data. The IC50 values were derived by fitting the data to a four parameter logistic equation producing a sigmoidal dose-response curve with a variable Hill coefficient.
(§3) The symbol “t” indicates IC50≤100 nM, “††” indicates IC50>100 nM but ≤1 μM; and “†††” indicates IC50 is >1 μM but ≤5 μM, “††††” indicates IC50 is >5 μM but ≤10 μM. “NA” indicates IC50 not available.

KRAS G12V = KRAS G12V (Homo sapiens, UniProt P01116, G12V); test: GDP-GTP exchange assay (bodipy-GDP/GppNHp, SOS1), KRAS G12V; format: biochemical; settings: KRAS_G12V exchange assay IC50; value for the most potent isomer quoted
Chain of KRAS G12V (P01116 1-188 isoform P01116-2 G12V): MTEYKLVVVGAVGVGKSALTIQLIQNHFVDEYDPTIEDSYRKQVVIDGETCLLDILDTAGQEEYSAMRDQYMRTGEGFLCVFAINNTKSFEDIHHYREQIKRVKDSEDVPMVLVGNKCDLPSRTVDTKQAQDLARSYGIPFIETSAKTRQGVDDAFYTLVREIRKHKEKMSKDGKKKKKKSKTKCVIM
Method: as §1, §2, §3

Caco-2 cells = test: Caco2 assay (permeability, A-B); format: in vitro ADME; settings: Papp absorptive direction (A-B), test compound 50 μM, 120 minutes
Method: Caco-2 cells are grown at 37° C. in an atmosphere of 5% CO2 in DMEM growth medium supplemented with 10% (v/v) fetal bovine serum, 1% (v/v) nonessential amino acids, penicillin (100 U/mL), and streptomycin (100 μg/mL). Confluent cell monolayers are subcultured every 7 days or 4 days for Caco-2 by treatment with 0.05% trypsin containing […]. Caco-2 cells are seeded in 96-well Transwell plates. The seeding density for Caco-2 cells is 14,000 cells/well. DMEM growth medium is replaced every other day after seeding. Cell monolayers are used for transport assays between 22 and 25 days for Caco-2 cells.
Cell culture medium is removed and replaced with HBSS. To measure the TEER, the HBSS is added into the donor compartment (apical side) and receiver compartment (basolateral side). The TEER is measured by using a REMS Autosampler to ensure the integrity of the cell monolayers. Caco-2 cell monolayers with TEER values≥300 Ω·cm^2 are used for transport experiments. To determine the Papp in the absorptive direction (A-B), solution of test compound (50 μM) in HBSS is added to the donor compartment (apical side), while HBSS solution with 4% BSA is added to the receiver compartment (basolateral side). The apical volume was 0.075 mL, and the basolateral volume is 0.25 mL. The incubation period is 120 minutes at 37° C. in an atmosphere of 5% CO2. At the end of the incubation period, samples from the donor and receiver sides are removed and an equal volume of acetonitrile is added for protein precipitation. The supernatants are collected after centrifugation (3000 rpm, Allegra X-14R Centrifuge from Beckman Coulter, Indianapolis, IN) for LCMS analysis. The permeability value is determined according to the equation: […]
where the flux rate (F, mass/time) is calculated from the slope of cumulative amounts of compound of interest on the receiver side, SA is the surface area of the cell membrane, VD is the donor volume, and MD is the initial amount of the solution in the donor chamber.
The symbol “+” indicates a Caco-2 value of […], “++” indicates a Caco-2 value of >0.5 but ≤1; and “+++” indicates a Caco-2 value of >1. “NA” indicates IC50 not available.

Chain of KRAS G12D (P01116 1-188 isoform P01116-2 G12D): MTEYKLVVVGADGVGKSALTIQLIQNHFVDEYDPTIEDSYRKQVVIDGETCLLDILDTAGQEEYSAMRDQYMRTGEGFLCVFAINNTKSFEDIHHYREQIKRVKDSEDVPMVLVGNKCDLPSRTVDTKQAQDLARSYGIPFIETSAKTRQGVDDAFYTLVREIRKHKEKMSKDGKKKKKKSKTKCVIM

G12D_exchange (KRAS G12D) | G12V_exchange (KRAS G12V) | Structure (SMILES) | Caco-2 (Caco-2 cells)
† | † | Cc1nc2c(F)c(-c3cccc(Cl)c3Cl)c(CCC#N)cc2c2c1cc([C@@H](C)N1CCCN(c3ccc(F)cn3)C1=O)n2[C@H]1[C@H]2CN[C@@H]1C2 (single isomer, unassigned) [Example 7] | +++ (“+++” indicates a Caco-2 value of >1)
† | † | CC(O)c1nc2c(F)c(-c3cccc(Cl)c3Cl)c(CCC#N)cc2c2c1cc([C@@H](C)N1CCCN(c3ccncc3)C1=O)n2[C@H]1[C@H]2CN[C@@H]1C2 (single isomer, unassigned) [Example 14] | + (“+” indicates a Caco-2 value of 50.5)
† | † | Cc1nc2c(F)c(-c3cccc(Cl)c3Cl)c(CCC#N)cc2c2c1cc([C@@H](C)N1CCCN(c3ccccn3)C1=O)n2[C@H]1[C@H]2CN[C@@H]1C2 (single isomer, unassigned) [Example 4] | + (“+” indicates a Caco-2 value of 50.5)
† | † | Cc1c(Cl)cc(O)cc1-c1c(CCC#N)cc2c(nc(C)c3cc([C@@H](C)N4CCCN(c5ccncc5)C4=O)n([C@H]4[C@H]5CN[C@@H]4C5)c32)c1F [Example 15, 3-(1-((1R,4R,5S)-2-azabicyclo[2.1.1]hexan-5-yl)-7-(3-chloro-5-hydroxy-2-methylphenyl)-6-fluoro-4-methyl-2-((R)-1-(2-oxo-3-(pyridin-4-yl)tetrahydropyrimidin-1(2H)-yl)ethyl)-1H-pyrrolo[3,2-c]quinolin-8-yl)propanenitrile] | + (“+” indicates a Caco-2 value of 50.5)
† | † | Cc1nc2c(F)c(-c3cccc(Cl)c3Cl)c(CCC#N)cc2c2c1cc([C@@H](C)N1CCCN(c3ccnc(F)c3)C1=O)n2[C@H]1[C@H]2CN[C@@H]1C2 (single isomer, unassigned) [Example 6] | +++ (“+++” indicates a Caco-2 value of >1)
† | † | Cc1nc2c(F)c(-c3cccc(Cl)c3Cl)c(CCC#N)cc2c2c1cc([C@@H](C)N1CCCN(c3ccc(F)cc3)C1=O)n2[C@H]1[C@H]2CN[C@@H]1C2 (single isomer, unassigned) [Example 3] | +++ (“+++” indicates a Caco-2 value of >1)
† | † | Cc1nc2c(F)c(-c3cccc(Cl)c3Cl)c(CCC#N)cc2c2c1cc([C@@H](C)N1CCCN(c3ccccc3)C1=O)n2[C@H]1[C@H]2CN[C@@H]1C2 (single isomer, unassigned) [Example 2] | +++ (“+++” indicates a Caco-2 value of >1)
† | † | Cc1nc2c(F)c(-c3cccc(Cl)c3Cl)c(CCC#N)cc2c2c1cc([C@@H](C)N1CCCN(c3ccncc3)C1=O)n2[C@H]1[C@H]2CN[C@@H]1C2 (single isomer, unassigned) [Example 1] | +++ (“+++” indicates a Caco-2 value of >1)
† | † | Cc1nc2c(F)c(-c3cccc(Cl)c3Cl)c(CCC#N)cc2c2c1cc([C@@H](C)N1CCCN(c3ccncc3F)C1=O)n2[C@H]1[C@H]2CN[C@@H]1C2 (single isomer, unassigned) [Example 5] | +++ (“+++” indicates a Caco-2 value of >1)
